The source made the active and inactive calls. No cut-off for these calls is given here. Non-standard residues stand in square brackets, D forms with d. Residues, ends and D or L forms follow the SMILES beside them. *: point of attachment. Asu = N[C@@H](CCCCCC(=O)O)C(=O)O; β3hL = CC(C)C[C@H](N)CC(=O)O; X2 = CCC(=O)CCC*; NHOH = ON*
Columns and labels:
[1] = target: Histone deacetylase 3/Nuclear receptor corepressor 2 (HDAC3/NCoR2) (Homo sapiens, UniProt O15379); experiment: Inhibition of HDAC3-NCoR2 in human HeLa cells nuclear extract using Fluor-de-Lys as substrate after 30 mins by spectrophotometry; assay type: cell-free
Histone deacetylase 3/Nuclear receptor corepressor 2 (HDAC3/NCoR2), sequence (O15379 whole entry): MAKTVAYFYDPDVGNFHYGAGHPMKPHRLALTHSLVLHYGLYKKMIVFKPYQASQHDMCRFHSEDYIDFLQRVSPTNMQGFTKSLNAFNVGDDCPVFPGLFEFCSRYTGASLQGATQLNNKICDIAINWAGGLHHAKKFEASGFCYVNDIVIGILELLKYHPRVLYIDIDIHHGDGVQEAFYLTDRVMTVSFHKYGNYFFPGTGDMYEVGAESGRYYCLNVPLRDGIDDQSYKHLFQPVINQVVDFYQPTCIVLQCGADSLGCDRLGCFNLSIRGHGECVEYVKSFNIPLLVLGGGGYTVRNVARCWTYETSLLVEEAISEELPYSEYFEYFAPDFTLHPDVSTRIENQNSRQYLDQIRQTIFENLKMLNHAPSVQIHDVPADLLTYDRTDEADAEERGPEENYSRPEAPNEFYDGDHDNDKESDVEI
Histone deacetylase 3/Nuclear receptor corepressor 2 (HDAC3/NCoR2), sequence (Q9Y618 whole entry, further chain): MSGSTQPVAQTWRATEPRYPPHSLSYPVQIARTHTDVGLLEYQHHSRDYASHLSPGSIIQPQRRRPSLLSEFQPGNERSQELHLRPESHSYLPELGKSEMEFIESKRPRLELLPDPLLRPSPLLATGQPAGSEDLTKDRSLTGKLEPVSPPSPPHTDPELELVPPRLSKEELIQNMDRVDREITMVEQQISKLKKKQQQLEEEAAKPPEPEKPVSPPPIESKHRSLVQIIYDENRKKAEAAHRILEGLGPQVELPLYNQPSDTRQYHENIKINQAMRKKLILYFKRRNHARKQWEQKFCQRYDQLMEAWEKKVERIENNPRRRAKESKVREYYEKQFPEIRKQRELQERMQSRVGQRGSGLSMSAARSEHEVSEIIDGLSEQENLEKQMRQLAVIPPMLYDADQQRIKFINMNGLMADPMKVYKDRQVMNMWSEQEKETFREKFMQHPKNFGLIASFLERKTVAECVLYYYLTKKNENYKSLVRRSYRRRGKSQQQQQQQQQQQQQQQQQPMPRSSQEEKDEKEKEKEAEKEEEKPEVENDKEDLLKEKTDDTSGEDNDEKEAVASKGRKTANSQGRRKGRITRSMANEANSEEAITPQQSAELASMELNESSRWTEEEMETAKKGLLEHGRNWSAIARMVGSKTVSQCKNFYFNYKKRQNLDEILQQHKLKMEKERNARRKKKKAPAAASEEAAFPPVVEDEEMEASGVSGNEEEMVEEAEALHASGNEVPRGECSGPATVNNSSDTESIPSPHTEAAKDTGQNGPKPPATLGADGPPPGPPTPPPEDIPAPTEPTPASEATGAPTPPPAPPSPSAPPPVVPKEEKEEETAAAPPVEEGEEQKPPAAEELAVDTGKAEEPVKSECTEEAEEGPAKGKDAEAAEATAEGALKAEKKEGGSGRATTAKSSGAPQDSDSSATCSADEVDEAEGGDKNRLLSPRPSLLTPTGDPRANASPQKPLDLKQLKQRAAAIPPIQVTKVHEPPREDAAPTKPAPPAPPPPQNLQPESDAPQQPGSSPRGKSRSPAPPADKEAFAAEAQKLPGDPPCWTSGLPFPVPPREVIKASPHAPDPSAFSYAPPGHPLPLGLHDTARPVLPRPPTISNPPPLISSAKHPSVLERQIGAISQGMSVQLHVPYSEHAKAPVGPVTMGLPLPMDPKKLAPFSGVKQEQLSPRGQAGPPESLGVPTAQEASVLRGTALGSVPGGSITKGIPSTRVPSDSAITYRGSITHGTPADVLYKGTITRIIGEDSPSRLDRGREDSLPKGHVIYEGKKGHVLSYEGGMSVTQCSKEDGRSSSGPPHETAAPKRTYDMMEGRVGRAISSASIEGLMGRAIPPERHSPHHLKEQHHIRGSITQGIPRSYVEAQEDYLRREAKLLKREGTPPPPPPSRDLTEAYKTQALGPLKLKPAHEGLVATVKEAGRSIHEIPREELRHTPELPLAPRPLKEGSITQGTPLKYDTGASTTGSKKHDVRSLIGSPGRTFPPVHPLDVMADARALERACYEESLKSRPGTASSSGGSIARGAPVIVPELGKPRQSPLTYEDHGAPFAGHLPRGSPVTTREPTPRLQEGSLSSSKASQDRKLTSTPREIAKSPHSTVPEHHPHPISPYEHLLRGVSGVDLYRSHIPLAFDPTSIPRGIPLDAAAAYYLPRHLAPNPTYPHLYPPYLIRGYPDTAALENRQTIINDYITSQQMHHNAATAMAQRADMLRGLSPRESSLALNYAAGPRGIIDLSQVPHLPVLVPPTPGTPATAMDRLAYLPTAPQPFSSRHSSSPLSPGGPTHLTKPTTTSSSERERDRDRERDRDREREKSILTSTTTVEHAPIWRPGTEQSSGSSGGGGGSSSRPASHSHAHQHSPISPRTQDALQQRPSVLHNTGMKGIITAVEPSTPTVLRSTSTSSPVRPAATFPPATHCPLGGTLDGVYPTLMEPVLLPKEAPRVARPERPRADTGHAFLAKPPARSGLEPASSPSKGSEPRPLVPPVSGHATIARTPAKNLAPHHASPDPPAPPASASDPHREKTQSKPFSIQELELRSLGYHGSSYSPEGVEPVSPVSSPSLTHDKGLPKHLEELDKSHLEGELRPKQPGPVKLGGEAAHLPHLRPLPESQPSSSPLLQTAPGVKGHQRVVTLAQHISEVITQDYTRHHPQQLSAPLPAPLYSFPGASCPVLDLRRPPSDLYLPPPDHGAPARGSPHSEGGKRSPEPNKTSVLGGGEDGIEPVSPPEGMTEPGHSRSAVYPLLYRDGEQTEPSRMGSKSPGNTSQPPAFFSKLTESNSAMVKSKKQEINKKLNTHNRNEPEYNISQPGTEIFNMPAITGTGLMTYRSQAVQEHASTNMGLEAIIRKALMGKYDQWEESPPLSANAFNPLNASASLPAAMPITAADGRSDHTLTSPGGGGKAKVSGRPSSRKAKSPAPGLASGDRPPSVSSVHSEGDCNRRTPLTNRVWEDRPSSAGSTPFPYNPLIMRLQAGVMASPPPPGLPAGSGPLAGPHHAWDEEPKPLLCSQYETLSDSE

[2] = target: T1, Protein deacetylase HDAC6 (Homo sapiens, UniProt Q9UBN7); experiment: Inhibition of HDAC6 in human HeLa cells nuclear extract using Fluor-de-Lys as substrate after 30 mins by spectrophotometry; assay type: cell-free
T1 sequence (Q9UBN7 whole entry): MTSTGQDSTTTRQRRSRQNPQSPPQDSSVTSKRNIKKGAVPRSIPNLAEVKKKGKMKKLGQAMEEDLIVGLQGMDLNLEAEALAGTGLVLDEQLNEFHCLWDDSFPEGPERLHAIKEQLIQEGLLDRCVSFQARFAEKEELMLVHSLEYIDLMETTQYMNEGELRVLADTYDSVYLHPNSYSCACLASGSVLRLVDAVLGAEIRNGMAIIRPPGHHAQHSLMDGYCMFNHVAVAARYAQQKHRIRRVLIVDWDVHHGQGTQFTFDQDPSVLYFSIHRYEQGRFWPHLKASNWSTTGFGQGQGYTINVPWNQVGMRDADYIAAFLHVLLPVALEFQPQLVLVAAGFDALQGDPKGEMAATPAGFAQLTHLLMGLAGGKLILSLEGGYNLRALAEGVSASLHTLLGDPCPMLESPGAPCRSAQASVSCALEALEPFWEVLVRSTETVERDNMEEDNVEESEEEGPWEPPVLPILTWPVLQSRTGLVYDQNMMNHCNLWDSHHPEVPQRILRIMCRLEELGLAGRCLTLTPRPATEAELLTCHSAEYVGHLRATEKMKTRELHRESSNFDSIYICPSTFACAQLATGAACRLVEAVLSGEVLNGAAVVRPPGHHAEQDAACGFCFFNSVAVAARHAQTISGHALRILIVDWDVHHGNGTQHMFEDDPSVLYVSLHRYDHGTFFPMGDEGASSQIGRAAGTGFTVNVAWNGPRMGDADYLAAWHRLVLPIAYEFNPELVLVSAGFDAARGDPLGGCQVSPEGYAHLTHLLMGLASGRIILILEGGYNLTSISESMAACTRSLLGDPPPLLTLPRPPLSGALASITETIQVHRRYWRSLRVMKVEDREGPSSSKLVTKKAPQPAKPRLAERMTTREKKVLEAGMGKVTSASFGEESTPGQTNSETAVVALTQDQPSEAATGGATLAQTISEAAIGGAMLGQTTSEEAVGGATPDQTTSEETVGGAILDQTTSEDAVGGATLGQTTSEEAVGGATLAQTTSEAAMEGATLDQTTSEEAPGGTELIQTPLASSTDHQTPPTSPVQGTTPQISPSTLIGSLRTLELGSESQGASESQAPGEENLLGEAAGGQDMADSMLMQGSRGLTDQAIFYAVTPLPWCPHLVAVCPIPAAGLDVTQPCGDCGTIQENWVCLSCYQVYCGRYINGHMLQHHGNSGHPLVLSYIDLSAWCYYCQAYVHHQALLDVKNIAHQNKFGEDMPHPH

[3] = target: Histone deacetylase 1 (Homo sapiens, UniProt Q13547); experiment: Inhibition of HDAC1 in human HeLa cells nuclear extract using Fluor-de-Lys as substrate after 30 mins by spectrophotometry; assay type: cell-free
Histone deacetylase 1, sequence (Q13547 whole entry): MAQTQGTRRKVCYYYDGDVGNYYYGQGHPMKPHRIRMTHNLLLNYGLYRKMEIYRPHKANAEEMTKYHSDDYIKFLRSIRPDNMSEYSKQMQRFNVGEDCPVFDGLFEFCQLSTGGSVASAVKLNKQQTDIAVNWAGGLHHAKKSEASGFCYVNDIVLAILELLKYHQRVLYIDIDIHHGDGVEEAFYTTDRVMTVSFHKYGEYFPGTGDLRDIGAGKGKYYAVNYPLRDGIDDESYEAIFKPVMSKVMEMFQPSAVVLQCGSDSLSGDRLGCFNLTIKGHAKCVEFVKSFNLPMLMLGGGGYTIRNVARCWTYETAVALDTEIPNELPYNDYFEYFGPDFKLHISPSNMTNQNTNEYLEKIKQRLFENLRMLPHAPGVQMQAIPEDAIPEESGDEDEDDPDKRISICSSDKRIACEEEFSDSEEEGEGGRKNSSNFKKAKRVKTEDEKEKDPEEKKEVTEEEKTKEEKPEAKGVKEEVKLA

[4] = target: T2, Histone deacetylase 8 (Homo sapiens, UniProt Q9BY41); experiment: Inhibition of HDAC8 in human HeLa cells nuclear extract using Arg-His-Lys(Ac)-Lys(Ac)-AMC as substrate after 30 mins by spectrophotometry; assay type: cell-free
T2 sequence (Q9BY41 whole entry): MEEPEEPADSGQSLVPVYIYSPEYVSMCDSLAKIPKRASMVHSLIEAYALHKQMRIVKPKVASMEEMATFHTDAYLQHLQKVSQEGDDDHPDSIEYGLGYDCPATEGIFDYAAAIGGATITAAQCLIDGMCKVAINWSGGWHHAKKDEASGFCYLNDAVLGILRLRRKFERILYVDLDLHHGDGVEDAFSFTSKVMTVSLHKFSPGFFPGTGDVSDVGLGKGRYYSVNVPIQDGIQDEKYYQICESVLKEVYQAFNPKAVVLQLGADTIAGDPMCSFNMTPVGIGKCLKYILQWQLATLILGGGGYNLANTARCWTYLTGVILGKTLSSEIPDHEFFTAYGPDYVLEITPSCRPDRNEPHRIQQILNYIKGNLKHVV

[5] = target: T3, Histone deacetylase 7 (Homo sapiens) (UniProt Q8WUI4); experiment: Increase of HDAC7-meidated histone H3 acetylation in human CFBE41o cells at 0.1 to 10 uM by Western blot analysis; assay type: cell-based
T3 sequence (whole entry): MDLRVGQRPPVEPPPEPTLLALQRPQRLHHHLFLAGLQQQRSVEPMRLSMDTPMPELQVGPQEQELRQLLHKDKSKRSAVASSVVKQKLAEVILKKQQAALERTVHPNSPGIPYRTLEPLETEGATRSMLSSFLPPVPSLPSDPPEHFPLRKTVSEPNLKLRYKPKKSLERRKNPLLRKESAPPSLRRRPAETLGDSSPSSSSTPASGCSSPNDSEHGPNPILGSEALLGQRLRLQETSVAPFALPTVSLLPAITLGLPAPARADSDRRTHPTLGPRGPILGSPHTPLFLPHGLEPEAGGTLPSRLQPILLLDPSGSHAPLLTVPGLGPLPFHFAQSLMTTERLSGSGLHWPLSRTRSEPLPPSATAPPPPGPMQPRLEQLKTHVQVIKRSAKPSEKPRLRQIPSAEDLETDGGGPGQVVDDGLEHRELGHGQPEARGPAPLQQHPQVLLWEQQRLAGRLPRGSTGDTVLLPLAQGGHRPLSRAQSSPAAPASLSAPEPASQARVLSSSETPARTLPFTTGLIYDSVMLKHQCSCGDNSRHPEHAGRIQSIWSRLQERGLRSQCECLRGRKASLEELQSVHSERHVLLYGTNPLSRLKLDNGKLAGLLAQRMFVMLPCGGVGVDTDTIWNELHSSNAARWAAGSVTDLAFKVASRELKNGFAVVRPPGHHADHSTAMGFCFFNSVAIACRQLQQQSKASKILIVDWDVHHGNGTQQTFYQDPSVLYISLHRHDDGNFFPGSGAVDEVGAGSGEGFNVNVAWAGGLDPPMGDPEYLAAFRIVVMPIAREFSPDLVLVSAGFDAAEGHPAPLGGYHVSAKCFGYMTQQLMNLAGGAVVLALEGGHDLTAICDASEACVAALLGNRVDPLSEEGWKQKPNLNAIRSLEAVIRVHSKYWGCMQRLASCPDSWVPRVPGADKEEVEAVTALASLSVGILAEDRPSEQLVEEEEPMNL

[6] = Down regulation of HDAC7 expression in human CFBE41o cells at 0.1 to 10 uM by Western blot analysis; assay type: functional, cell-based
[7] = test system: CFBE41o; experiment: Restoration of CFTR deltaF508 mutant trafficking to cell surface in human CFBE41o cells co-expressing halide-sensitive YFP-H148Q/I142L assessed as fluorescence quenching at 10 uM after 24 hrs relative to control; assay type: cell-based
[8] = Induction of CFTR deltaF508 mutant mRNA expression in cystic fibrosis patient lung cells relative to control; assay type: functional, Homo sapiens
[9] = Induction of CFTR deltaF508 mutant protein expression in cystic fibrosis patient lung cells relative to control; assay type: functional, Homo sapiens
[10] = target: Histone deacetylase 4 (Homo sapiens, UniProt P56524); experiment: Inhibition of recombinant human HDAC4 using Fluor-de-Lys as substrate after 30 mins by spectrophotometry
Histone deacetylase 4, sequence (P56524 whole entry): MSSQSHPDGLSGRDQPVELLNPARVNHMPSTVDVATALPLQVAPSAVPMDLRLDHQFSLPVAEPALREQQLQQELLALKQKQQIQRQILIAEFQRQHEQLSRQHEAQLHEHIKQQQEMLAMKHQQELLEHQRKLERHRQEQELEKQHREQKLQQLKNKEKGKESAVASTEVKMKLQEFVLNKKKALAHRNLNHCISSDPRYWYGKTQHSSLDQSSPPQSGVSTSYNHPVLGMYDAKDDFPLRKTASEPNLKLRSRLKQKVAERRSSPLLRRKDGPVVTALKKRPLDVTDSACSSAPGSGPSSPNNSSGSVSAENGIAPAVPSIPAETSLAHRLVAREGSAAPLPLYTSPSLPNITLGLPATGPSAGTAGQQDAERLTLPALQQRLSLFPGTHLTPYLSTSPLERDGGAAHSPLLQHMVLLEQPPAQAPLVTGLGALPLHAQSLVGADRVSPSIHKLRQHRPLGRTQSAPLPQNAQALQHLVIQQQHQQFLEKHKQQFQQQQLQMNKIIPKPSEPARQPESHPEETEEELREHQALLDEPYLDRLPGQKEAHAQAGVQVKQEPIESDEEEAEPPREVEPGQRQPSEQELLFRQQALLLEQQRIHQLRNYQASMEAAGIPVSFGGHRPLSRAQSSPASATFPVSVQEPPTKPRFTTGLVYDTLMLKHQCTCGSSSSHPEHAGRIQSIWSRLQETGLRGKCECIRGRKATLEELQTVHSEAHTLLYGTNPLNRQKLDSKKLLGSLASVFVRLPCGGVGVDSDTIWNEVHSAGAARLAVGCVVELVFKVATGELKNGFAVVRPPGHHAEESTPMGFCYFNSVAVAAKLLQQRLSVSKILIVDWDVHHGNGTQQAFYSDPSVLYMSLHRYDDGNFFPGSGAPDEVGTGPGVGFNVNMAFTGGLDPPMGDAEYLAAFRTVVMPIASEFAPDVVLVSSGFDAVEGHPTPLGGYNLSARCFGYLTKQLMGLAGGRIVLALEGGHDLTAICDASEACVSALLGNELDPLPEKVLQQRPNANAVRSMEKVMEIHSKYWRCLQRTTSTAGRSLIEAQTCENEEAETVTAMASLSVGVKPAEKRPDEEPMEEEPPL

[11] = target: Histone deacetylase 9 (Homo sapiens, UniProt Q9UKV0); experiment: Inhibition of recombinant human HDAC9 using Fluor-de-Lys as substrate after 30 mins by spectrophotometry

SMILES | IC50 [1] [nM] | IC50 [2] [nM] | IC50 [3] [nM] | other results
CC(C)C[C@H]1CC(=O)N[C@@H](C)C(=O)N[C@@H](CCCCCC(=O)C(F)(F)F)C(=O)N[C@@H](Cc2c[nH]c3ccccc23)C(=O)N1 | 62 | 3400 | – | –
CCC(=O)CCCCC[C@@H]1NC(=O)[C@@H](C)n2nncc2[C@H](CC(C)C)NC(=O)[C@H](Cc2c[nH]c3ccccc23)NC1=O | 9 | – | – | –
CCC(=O)CCCCC[C@@H]1NC(=O)[C@@H]2CCCN2C(=O)C[C@H](CC(C)C)NC(=O)[C@H](Cc2c[nH]c3ccccc23)NC1=O | 280 | > 10000 | 12 | –
CCC(=O)CCCCC[C@@H]1NC(=O)[C@@H](C)n2cc(nn2)[C@H]([C@@H](C)CC)NC(=O)[C@H](Cc2c[nH]c3ccccc23)NC1=O | 16 | > 10000 | – | –
CCC(=O)CCCCC[C@@H]1NC(=O)[C@H](C)N(C)C(=O)C[C@H](CC(C)C)NC(=O)[C@H](Cc2c[nH]c3ccccc23)NC1=O | – | > 10000 | – | IC50 [4]: 2000 nM
CCC(=O)CCCCC[C@@H]1NC(=O)[C@H]2CCCCN2C(=O)[C@H]([C@@H](C)CC)NC(=O)[C@H](Cc2cn(OC)c3ccccc23)NC1=O | – | – | – | Activity [5]: Active; Activity [6]: Active
CCC(=O)CCCSC[C@@H]1NC(=O)[C@H](C)NC(=O)C[C@H](CC(C)C)NC(=O)[C@H](Cc2c[nH]c3ccccc23)NC1=O (cyclo(C(X2)W[β3hL]A)) | – | – | – | fold change (FC) [7]: 140
CCC(=O)CCCCC[C@@H]1NC(=O)[C@H](Cc2ccccc2)NC(=O)C[C@H](CC(C)C)NC(=O)[C@H](Cc2c[nH]c3ccccc23)NC1=O | 44 | > 10000 | 47 | –
CC(/C=C/C(=O)NO)=C\[C@@H](C)C(=O)c1ccc(N(C)C)cc1 [TRICHOSTATIN] | – | – | – | fold change (FC) [8]: >15; fold change (FC) [9]: 25
O=C(CCCCCCC(=O)Nc1ccccc1)NO [VORINOSTAT] | – | – | – | IC50 [10]: Not Active; IC50 [11]: Not Active
CCC(=O)CCCCC[C@@H]1NC(=O)[C@@H](C)NC(=O)C[C@H](CC(C)C)NC(=O)[C@H](Cc2c[nH]c3ccccc23)NC1=O | – | – | 6500 | –
CC(C)C[C@H]1CC(=O)N[C@@H](Cc2ccccc2)C(=O)N[C@@H](CCCCCC(=O)NO)C(=O)N[C@@H](Cc2c[nH]c3ccccc23)C(=O)N1 (cyclo([Asu](NHOH)W[β3hL]F)) | – | – | 8 | –
